Data published in patent US20040132079A1, “Assays relating to Toll-like receptor activity” (3M Innovative Properties Company, priority 2002, published 2004).

Target: T1, human TLR6 (Homo sapiens, UniProt Q9Y2C9)
T1 construct: expressed in transfected cells; host or cells: Namalwa cells (ATCC CRL-1432), co-transfected with pIFN-α1-luc and pCI-TLR6, G418-selected
T1 sequence (Q9Y2C9 32-796): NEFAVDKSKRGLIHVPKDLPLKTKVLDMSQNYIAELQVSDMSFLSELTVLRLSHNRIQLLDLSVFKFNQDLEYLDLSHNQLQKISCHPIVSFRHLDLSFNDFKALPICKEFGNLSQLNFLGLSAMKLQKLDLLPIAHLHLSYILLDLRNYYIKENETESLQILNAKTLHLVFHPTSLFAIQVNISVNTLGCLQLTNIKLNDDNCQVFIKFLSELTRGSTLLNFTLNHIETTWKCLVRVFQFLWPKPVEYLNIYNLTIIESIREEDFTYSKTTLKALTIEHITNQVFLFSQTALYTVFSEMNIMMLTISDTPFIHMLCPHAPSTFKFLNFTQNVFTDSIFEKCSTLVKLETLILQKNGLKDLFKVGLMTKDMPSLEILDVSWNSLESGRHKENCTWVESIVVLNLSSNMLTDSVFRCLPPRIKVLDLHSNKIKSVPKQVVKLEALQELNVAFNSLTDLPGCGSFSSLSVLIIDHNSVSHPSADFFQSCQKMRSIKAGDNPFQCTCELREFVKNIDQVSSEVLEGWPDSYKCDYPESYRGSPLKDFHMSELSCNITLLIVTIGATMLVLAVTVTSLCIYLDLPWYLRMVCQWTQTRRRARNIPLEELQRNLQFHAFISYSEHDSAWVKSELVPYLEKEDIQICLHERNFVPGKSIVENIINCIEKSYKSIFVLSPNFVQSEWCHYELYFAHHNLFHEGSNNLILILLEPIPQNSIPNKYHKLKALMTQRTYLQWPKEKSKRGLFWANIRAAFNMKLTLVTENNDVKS
Assay: Luciferase induction off of the IFN-α1 promoter in pIFN-α1-luc/pCI-TLR6 co-transfected Namalwa cells
Assay type: cell-based
Conditions: IRM compound 10 μM, 18 hours, compared to DMSO negative control, representative experiment
From the text: The vector pIFN-α1-luc was constructed by inserting BglII sites at both ends of the human IFN-α1 promoter (SEQ ID NO:21). The BglII sites were inserted into the IFN-α1 promoter and the sequence was amplified using the primer pair of SEQ ID NO:22 and SEQ ID NO:23. The amplified IFN-α1 promoter was cloned into the pGL3-Enhancing vector (Promega Corp., Madison, Wis.) at the BglII site.
The vector pCI-TLR6 was constructed by inserting SEQ ID NO:11 (GenBank Accession No. NM 006068), which includes the human TLR6 coding sequence, into the pCI-neo mammalian expression vector (Promega Corp.) at the vector's NheI and MluI restriction sites.
Burkitt's Lymphoma lymphoblastoid Namalwa cells (ATCC Accession No. CRL-1432) were grown by incubation in culture medium overnight. Cells were harvested by centrifugation in a tabletop centrifuge (1200 RPM for 5 minutes), and then resuspended in phosphate buffered sucrose to a concentration of 1.3×10^7 cells per milliliter.
For each transfection, a 750 μL aliquot of the cell suspension was placed in an electroporation cuvette with 4 mm gaps. 10 μg of the pIFN-α1-luc vector and 10 μg of the pCI-TLR6 vector were added to the electroporation cuvette. The cell and vector mixtures were incubated at room temperature for 5 minutes. The cells were electroporated using a BioRad Gene Pulser (BioRad Laboratories, Hercules, Calif.) set to at 500 μF capacitance and […], then incubated at room temperature for 5 minutes.
The electroporated cells were suspended in 10 mLs of culture medium and incubated overnight. Dead cells and debris were removed after 24 hours using a MACS Dead Cell Removal kit (Miltenyi Biotec, Auburn, Calif.). Cells were resuspended in 10 mLs of culture medium and incubated for an additional 24 hours.
Transfected cells were selected by adding G418 (Promega Corp., Madison, Wis.) to a final concentration of 1 mg/mL and incubating the cells for seven days.
The selected transfected cells were counted and resuspended to a concentration of 1×10^6 cell per mL in culture medium. 100 μl aliquots of cells were placed in the wells of a white-walled, white-bottomed 96-well plate (Corning, Inc. Corning, N.Y.). 1.0 μL of an IRM compound from Table 1 (prepared at 1 mM in 100% DMSO) was added to some cell aliquots so that the final concentration of IRM compound was 10 μM. As a positive control, some cell aliquots were incubated with Sendai virus instead of IRM compound. As a negative control, some cell aliquots were incubated with DMSO without IRM compound. In all cases, the cells were incubated for 18 hours.
The plates were equilibrated to room temperature before 1 volume of reconstituted LucLight Plus (Packard Instruments, Meriden, Conn.) was added to each aliquot of cells. Each well of the plate was read on an LJL Analyst (LJL Biosystems, Inc., Sunnyvale, Calif.) set with a 5 minute dark adapt. The data are expressed as the fold increase in luciferase induction off of the IFN-α1 promoter in cell aliquots incubated with the indicated stimulant compared to the negative control in which the cell aliquots were incubated with only DMSO.

Compound | Fold Increase in Luciferase Induction [fold]
CCOCc1nc2c(N)nc3c(c2n1CC(C)(C)O)CCCC3 [IRM1, 4-amino-2-ethoxymethyl-α,α-dimethyl-6,7,8,9-tetrahydro-1H-imidazo[4,5-c]quinoline-1-ethanol] | 3.6
Cc1nc2c(N)nc3ccccc3c2n1CC(C)(C)O [IRM2, 4-amino-α,α,2-trimethyl-1H-imidazo[4,5-c]quinoline-1-ethanol] | 2.7
CCCCc1nc2c(N)nc3ccccc3c2n1CCCCNS(C)(=O)=O [IRM3, N-[4-(4-amino-2-butyl-1H-imidazo[4,5-c]quinolin-1-yl)butyl]methanesulfonamide] | 2.6
Nc1nc2ccccc2c2c1ncn2CCOCCCc1cccnc1 [IRM4, 1-{2-[3-(3-pyridyl)-propoxy]ethyl}-1H-imidazo[4,5-c]quinolin-4-amine] | 4.0
CCCCc1nc2c(N)nc3cccnc3c2n1CC(C)C [IRM5, 2-butyl-1-(2-methylpropyl)-1H-imidazo[4,5-c][1,5]naphthyridin-4-amine] | 3.2
CCCCc1nc2c(N)nc3c(c2n1CC(C)C)NCCC3 [IRM6, 2-butyl-6,7,8,9-tetrahydro-1-(2-methylpropyl)-1H-imidazo[4,5-c][1,5]naphthyridin-4-amine] | 2.9
COCCc1nc2c(N)nc3ccccc3c2n1CCCCNC(=O)c1ccc(-n2cccc2)nc1 [IRM7, N^3-{4-[4-amino-2-(2-methoxyethyl)-1H-imidazo[4,5-c]quinolin-1-yl]butyl}-6-(1H-1-pyrrolyl)nicotinamide] | 3.2
CCc1nc2c(N)nc3ccccc3c2n1CCCCCS(C)(=O)=O [IRM8, 2-ethyl-1-[5-(methylsulfonyl)-pentyl]-1H-imidazo[4,5-c]quinolin-4-amine] | 2.3
